Measurements as given in patent EP0291007A1, “Rhodanine derivative, process for preparing the same and pharmaceutical composition containing the same” (KAKEN PHARMACEUTICAL CO., LTD., priority 1987, dated 1988).

System: accumulation of sorbitol in nervous tissues
Assay: Inhibiting activity of the accumulation of sorbitol in nervous tissues of streptozotocin-diabetic rats
Format: in vivo, SD male rats
Details: comparison compounds with linear alkyl group at 5-position; dose not stated

Row | Structure (SMILES) | inhibition of the accumulation of sorbitol
1 | CCCCC1SC(=S)N(CC(=O)O)C1=O (centres unmarked) [3-carboxymethyl-5-n-butylrhodanine] | hardly inhibited the accumulation of sorbitol
2 | CCCCCCCC1SC(=S)N(CC(=O)O)C1=O (centres unmarked) [3-carboxymethyl-5-n-heptylrhodanine] | hardly inhibited the accumulation of sorbitol
